{"source": "paper PMC10694654", "about": "(The Journal of Biological Chemistry, 2023)", "key": {"[1]": {"molecular_target": "T1, His6-AphAEc (Escherichia coli, UniProt P0AE22)", "T1 construct": "gene aphA; signal peptide removed, N-terminal His6 kept, pET28a, expressed in E. coli; tetramer by SEC", "test": "DRaCALA competition against […]-cAMP", "assay_type": "binding", "settings": "5 mM AMP (figure legend: 4 mM); 2 nM 32P-cAMP; 40 mM Tris pH 7.5, 100 mM NaCl, 10 mM MgCl2"}, "[2]": {"molecular_target": "T2, AphAEc-His6 (Escherichia coli, UniProt P0AE22)", "T2 construct": "gene aphA; signal peptide removed, C-terminal His6 kept, pET28a, expressed in E. coli; non-natural dimer by SEC", "test": "DRaCALA competition against […]-cAMP", "assay_type": "binding", "settings": "5 mM AMP (figure legend: 4 mM); 2 nM 32P-cAMP; 40 mM Tris pH 7.5, 100 mM NaCl, 10 mM MgCl2"}, "[3]": {"molecular_target": "T3, His6-HelHi (Haemophilus influenzae, UniProt P26093)", "T3 construct": "gene hel; N-terminal His6 kept, pET28a-his-helHi, expressed in E. coli", "T3 sequence (P26093 21-274)": "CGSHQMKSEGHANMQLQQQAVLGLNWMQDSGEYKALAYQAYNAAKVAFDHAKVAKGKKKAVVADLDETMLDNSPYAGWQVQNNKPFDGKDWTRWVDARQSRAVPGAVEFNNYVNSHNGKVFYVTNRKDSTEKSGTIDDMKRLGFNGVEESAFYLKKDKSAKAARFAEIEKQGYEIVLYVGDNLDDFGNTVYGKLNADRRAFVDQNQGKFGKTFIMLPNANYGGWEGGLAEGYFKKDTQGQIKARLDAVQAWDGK", "test": "pNPP phosphatase assay, A405", "assay_type": "biochemical", "settings": "1 mM pNPP, 15 nM enzyme, pH 8 and 5.6"}, "[4]": {"molecular_target": "the molecule itself", "test": "SEC; Superdex 200 Increase 10/300 GL on an AKTA system; size estimated against standard proteins"}}}
{"molecule": "Nc1ncnc2c1ncn2[C@@H]1O[C@H](COP(=O)(O)O)[C@@H](O)[C@H]1O", "note": "[AMP]", "values": [{"measurement": "DRaCALA competition against 32P-cAMP", "setting": "[1]", "result": "the binding fractions dropped to nearly zero for AMP"}, {"measurement": "DRaCALA competition against 32P-cAMP", "setting": "[2]", "result": "the binding fractions dropped to nearly zero for AMP"}]}
{"molecule": "O=[N+]([O-])c1ccc(OP(=O)(O)O)cc1", "note": "[p-Nitrophenyl Phosphate]", "values": [{"measurement": "pNPP phosphatase assay, A405", "setting": "[3]", "result": "acid phosphatase assay of the His6-HelHi protein"}]}
{"molecule": "tagless AphAEc (periplasmic acid phosphatase AphA of Escherichia coli, His6-SUMO tag cleaved off by Ulp1) (enzyme, AphA, nonspecific periplasmic acid phosphatase of Escherichia coli K-12; protein of around 25 kDa on SDS-PAGE; pET24d-his-sumo-aphAEc; linker between SUMO and aphA removed by mutagenesis; probably the mature protein as in m1 and m2; also called cleaved His6-SUMO-AphAEc; source: E. coli, purified; His6-SUMO tag cleaved off with His6-Ulp1, size-exclusion chromatography; not shown: His6-SUMO, …) SPSPLNPGTNVARLAEQAPIHWVSVAQIENSLAGRPPMAVGFDIDDTVLFSSPGFWRGKKTFSPESEDYLKNPVFWEKMNNGWDEFSIPKEVARQLIDMHVRRGDAIFFVTGRSPTKTETVSKTLADNFHIPATNMNPVIFAGDKPGQNTKSQWLQDKNIRIFYGDSDNDITAARDVGARGIRILRASNSTYKPLPQAGAFGEEVIVNSEY", "values": [{"measurement": "stoichiometry N", "setting": "[4]", "result": 4}]}
{"molecule": "AphAEc-His6 (periplasmic acid phosphatase AphA of Escherichia coli, signal peptide removed, C-terminal His6 tag) (enzyme, UniProt P0AE22 26-237, looked up, AphA, nonspecific periplasmic acid phosphatase of Escherichia coli K-12; signal peptide removed from the construct; pET28a-aphAEc-his; also called AphA-His6; Ct His6-tagged AphAEc; source: E. coli, purified (Ni-NTA, size-exclusion chromatography on Superdex 200 Increase); not shown: His6, C-terminal, kept) SSPSPLNPGTNVARLAEQAPIHWVSVAQIENSLAGRPPMAVGFDIDDTVLFSSPGFWRGKKTFSPESEDYLKNPVFWEKMNNGWDEFSIPKEVARQLIDMHVRRGDAIFFVTGRSPTKTETVSKTLADNFHIPATNMNPVIFAGDKPGQNTKSQWLQDKNIRIFYGDSDNDITAARDVGARGIRILRASNSTYKPLPQAGAFGEEVIVNSEY", "values": [{"measurement": "stoichiometry N", "setting": "[4]", "result": 2}]}
{"molecule": "His6-AphAEc (periplasmic acid phosphatase AphA of Escherichia coli, signal peptide removed, N-terminal His6 tag) (enzyme, UniProt P0AE22 26-237, looked up, AphA, nonspecific periplasmic acid phosphatase of Escherichia coli K-12; signal peptide removed from the construct; pET28a-his-aphAEc; also called Nt His6-tagged AphAEc; source: E. coli, purified (Ni-NTA, size-exclusion chromatography on Superdex 200 Increase); not shown: His6, N-terminal, kept) SSPSPLNPGTNVARLAEQAPIHWVSVAQIENSLAGRPPMAVGFDIDDTVLFSSPGFWRGKKTFSPESEDYLKNPVFWEKMNNGWDEFSIPKEVARQLIDMHVRRGDAIFFVTGRSPTKTETVSKTLADNFHIPATNMNPVIFAGDKPGQNTKSQWLQDKNIRIFYGDSDNDITAARDVGARGIRILRASNSTYKPLPQAGAFGEEVIVNSEY", "values": [{"measurement": "stoichiometry N", "setting": "[4]", "result": 4}]}
